Measured values reported in ChEMBL document CHEMBL1201862, “PubChem BioAssay data set” (2004).
Calls of active or inactive are those of the source.

Experiments:
Leucine aminopeptidase = target: T1, Leucine aminopeptidase (Plasmodium falciparum 3D7, UniProt Q8IL11); experiment: P. falciparum M17LAP inhibitors, primary screen, biochemical, fluorogenic H-Leu-NHMec substrate, 1536-well (AID 1619); format: functional
T1 sequence (Q8IL11 whole entry): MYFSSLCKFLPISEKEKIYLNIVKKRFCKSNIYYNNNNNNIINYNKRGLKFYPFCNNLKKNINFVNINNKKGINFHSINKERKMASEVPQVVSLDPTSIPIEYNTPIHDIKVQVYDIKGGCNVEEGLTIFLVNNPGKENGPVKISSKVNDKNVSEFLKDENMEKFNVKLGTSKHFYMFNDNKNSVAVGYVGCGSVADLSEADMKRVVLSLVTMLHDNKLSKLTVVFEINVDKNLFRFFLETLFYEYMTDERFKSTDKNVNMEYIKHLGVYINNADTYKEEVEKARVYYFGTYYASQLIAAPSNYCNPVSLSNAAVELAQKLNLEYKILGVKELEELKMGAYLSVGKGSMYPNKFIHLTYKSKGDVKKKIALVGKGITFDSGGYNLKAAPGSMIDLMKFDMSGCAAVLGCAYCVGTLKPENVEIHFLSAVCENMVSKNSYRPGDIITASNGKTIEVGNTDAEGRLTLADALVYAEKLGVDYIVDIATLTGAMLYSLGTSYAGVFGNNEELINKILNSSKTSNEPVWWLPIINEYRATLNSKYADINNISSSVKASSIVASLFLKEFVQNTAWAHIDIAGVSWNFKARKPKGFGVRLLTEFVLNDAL

[1] = target: T2, Polyadenylate-binding protein 1 (Homo sapiens, UniProt P11940); experiment: PABP1 MLLE–PAM2 interaction inhibitors, dose response, miRNA deadenylation inhibitor project, biochemical, fluorescence polarization, Cy5-PAM2 peptide, secondary (AID 602260); format: functional; details: read-out: IC50_Mean
[2] = target: T2, Polyadenylate-binding protein 1; experiment: PABP1 MLLE–PAM2 binding inhibitor potency, dose response, biochemical, fluorescence polarization, FITC-PAM2 peptide (AID 602259); format: functional; details: read-out: IC50_Mean
[3] = Luminescence Cell-Based Dose Confirmation HTS to Identify Activators of 5'UTR Stem-Loop Driven Alpha-Synuclein mRNA Translation in H4 Neuroglioblastoma Cells. [Related pubchem assays: 1829 (Project Summary), 1814 (Primary HTS)]; format: functional
[4] = Luminescence Cell-Based Dose Response HTS to Identify Activators of Luciferase Translation or Activity in H4 […] Cells. [Related pubchem assays: 1829 (Project Summary), 1814 (Primary HTS)]; format: functional
H4 = experiment: Luminescence Cell-Based Dose Response HTS to Identify Activators of 5'UTR Stem-Loop Driven Prion Protein mRNA Translation in H4 Neuroglioblastoma Cells. [Related pubchem assays: 1829 (Project Summary), 1814 (Primary HTS)]; format: functional; details: Homo sapiens
[5] = inhibitors of intracellular T. cruzi replication, confirmation, NIH3T3 host cells, beta-gal luminescence (AID 2044); format: functional, cell-based;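 note: intracellular parasites grown in NIH/3T3 mouse fibroblasts as host cells; luminescent beta-galactosidase reporter signal from transgenic T. cruzi replicating inside host cells; inhibitors lower the luminescence signal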
[6] = cytotoxicity toward NIH3T3 fibroblasts, dose response, counter-screen, cell-based, ATP luminescence, mouse fibroblasts (AID 2010); format: functional;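 note: cells exposed to compound for about 90 hours before reading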
[7] = target: T3, Replicative DNA helicase DnaB (Mycobacterium tuberculosis, UniProt P9WMR3); experiment: DnaB intein splicing inhibitors, dose response, biochemical, cell-free fluorescence (AID 449749); format: functional
T3 sequence (P9WMR3 whole entry): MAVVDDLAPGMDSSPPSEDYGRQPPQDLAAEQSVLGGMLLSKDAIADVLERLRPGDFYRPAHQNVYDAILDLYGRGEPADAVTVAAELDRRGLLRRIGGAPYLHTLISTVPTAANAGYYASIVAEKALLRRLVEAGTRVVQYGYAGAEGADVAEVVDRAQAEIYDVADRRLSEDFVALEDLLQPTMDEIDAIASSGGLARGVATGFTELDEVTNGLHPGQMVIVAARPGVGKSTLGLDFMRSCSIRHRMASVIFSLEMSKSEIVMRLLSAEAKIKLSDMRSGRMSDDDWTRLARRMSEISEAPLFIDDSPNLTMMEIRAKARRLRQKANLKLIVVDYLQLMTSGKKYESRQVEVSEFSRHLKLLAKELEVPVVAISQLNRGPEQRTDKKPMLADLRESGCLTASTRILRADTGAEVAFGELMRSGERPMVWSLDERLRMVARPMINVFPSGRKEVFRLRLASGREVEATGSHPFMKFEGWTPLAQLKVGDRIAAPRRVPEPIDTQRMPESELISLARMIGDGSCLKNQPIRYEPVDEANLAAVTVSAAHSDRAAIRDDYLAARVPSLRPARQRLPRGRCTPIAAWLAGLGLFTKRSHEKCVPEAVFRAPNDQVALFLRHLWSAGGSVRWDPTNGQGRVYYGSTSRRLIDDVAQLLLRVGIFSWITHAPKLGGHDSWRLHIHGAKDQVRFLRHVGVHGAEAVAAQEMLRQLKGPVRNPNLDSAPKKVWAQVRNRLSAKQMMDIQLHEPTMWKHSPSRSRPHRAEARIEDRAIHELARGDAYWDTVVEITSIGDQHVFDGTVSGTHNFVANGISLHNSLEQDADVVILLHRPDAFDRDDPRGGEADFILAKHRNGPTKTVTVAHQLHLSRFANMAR

Protein RecA = target: T4, Protein RecA (Mycobacterium tuberculosis, UniProt P9WHJ3); experiment: Fluorescence Cell-Free Homogeneous Dose Retest to Identify Inhibitors of RecA-Intein Splicing Activity. [Related pubchem assays (depositor defined):AID2097, AID2223, AID489010, AID492950]; format: functional
T4 sequence (P9WHJ3 whole entry): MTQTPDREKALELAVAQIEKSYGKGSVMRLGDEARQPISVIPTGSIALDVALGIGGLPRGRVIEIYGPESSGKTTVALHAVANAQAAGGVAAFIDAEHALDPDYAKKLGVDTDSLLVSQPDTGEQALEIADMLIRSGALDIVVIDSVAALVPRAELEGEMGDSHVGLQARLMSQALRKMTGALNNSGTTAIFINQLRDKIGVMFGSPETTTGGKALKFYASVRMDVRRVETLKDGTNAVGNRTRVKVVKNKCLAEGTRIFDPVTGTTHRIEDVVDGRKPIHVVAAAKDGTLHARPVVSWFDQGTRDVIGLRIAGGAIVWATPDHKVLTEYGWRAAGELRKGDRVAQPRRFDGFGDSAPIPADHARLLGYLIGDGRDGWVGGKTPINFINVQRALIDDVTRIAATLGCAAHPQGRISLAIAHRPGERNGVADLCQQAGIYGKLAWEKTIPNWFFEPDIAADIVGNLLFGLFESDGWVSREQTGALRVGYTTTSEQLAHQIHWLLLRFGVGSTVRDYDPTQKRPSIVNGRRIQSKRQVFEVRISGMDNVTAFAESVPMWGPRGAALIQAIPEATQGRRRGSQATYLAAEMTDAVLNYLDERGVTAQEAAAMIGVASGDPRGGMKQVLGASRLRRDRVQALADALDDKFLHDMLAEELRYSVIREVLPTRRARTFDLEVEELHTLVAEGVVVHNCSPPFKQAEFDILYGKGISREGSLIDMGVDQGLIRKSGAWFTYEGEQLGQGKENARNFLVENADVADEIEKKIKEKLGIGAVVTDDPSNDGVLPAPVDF

Vero = experiment: cells; format: functional; details: Chlorocebus sabaeus
[8] = target: T5, RNA-binding protein pos-1 (Caenorhabditis elegans, UniProt G5EF15); experiment: inhibitors of POS-1/mex-3 RNA binding, dose response, biochemical, fluorescence polarization (AID 1964);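 note: purified POS-1 fused to maltose binding protein made in E. coli; potency of compounds blocking POS-1 binding to fluorescent RNA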
T5 sequence (G5EF15 whole entry): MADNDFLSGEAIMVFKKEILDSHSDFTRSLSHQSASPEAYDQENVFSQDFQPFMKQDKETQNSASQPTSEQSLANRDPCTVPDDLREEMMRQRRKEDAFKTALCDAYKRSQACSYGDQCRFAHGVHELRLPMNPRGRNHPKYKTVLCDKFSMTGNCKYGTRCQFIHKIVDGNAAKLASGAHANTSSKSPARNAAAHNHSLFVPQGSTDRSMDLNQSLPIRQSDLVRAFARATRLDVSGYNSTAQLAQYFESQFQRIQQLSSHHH

[9] = target: T6, Zinc finger protein mex-5 (Caenorhabditis elegans, UniProt Q9XUB2); experiment: MEX-5/TCR-2 RNA interaction inhibitors, dose response, biochemical, C. elegans, fluorescence polarization (AID 1960)
T6 sequence (Q9XUB2 whole entry): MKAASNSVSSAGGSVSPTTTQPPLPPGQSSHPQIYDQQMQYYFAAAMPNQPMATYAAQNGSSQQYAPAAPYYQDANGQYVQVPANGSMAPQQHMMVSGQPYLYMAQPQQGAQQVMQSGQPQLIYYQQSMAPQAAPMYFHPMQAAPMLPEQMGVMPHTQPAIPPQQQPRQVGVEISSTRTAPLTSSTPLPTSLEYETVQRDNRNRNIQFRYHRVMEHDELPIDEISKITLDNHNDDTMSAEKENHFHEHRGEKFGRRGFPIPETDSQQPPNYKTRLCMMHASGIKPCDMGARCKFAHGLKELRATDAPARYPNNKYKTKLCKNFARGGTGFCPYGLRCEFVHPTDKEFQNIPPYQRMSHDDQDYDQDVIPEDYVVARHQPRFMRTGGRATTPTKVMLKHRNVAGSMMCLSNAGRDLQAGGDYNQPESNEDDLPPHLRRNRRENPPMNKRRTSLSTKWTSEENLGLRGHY

Cytochrome P450 2C19 = Cytochrome P450 2C19 (Homo sapiens, UniProt P33261); experiment: Cytochrome panel assay with activity outcomes. Panel member name: p450-cyp2c19 Compounds with AC50 equal or less than 10 uM are considered active; format: functional; details: read-out: AC50
[10] = system: Streptococcus sp. 'group A'; experiment: growth inhibition of control SK(-) GAS strain, dose response, counter-screen for streptokinase expression inhibitor project, luminescence, kanamycin, BacTiterGlo, confirmation (AID 1900); format: functional, organism-based
[11] = growth suppression of PTEN-null colon cells, dose response, cell-based, HCT116 PTEN knockout (AID 1047); format: functional;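 note: HCT116 colon tumor cells with PTEN knocked out; cells exposed to compound for 60 hours before readout; potency for loss of cell viability measured by luminescence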
[12] = growth suppression of beta-catenin-knockout colon cells, dose response, cell-based, HCT116, human colon tumor (AID 1045); format: functional;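 note: HCT116 colon tumor cells with beta catenin knocked out; cells exposed to compound for 60 hours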
Streptococcus = experiment: Group A Streptococcus viability loss, dose response, counter-screen for streptokinase expression inhibitor project, luminescence, BacTiterGlo (AID 1915); format: functional, organism-based;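 note: potency for reduction of bacterial viability or growth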

T2 sequence (P11940 whole entry): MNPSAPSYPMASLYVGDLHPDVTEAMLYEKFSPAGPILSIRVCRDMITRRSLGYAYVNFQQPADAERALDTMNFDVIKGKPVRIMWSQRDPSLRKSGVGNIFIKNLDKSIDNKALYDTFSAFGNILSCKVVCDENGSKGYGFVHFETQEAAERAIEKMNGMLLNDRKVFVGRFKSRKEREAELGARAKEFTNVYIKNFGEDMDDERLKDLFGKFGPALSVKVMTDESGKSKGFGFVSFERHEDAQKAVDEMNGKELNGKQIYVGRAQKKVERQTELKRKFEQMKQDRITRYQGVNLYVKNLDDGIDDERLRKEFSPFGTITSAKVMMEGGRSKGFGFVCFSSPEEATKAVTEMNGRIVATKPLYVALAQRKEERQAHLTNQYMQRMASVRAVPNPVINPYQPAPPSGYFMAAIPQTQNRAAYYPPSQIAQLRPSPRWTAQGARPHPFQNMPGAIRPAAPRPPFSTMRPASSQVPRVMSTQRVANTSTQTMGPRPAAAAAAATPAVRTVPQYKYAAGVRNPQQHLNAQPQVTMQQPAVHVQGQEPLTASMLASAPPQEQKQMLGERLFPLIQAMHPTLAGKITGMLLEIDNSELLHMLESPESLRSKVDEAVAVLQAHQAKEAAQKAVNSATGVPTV
Sequence of Cytochrome P450 2C19 (P33261 whole entry): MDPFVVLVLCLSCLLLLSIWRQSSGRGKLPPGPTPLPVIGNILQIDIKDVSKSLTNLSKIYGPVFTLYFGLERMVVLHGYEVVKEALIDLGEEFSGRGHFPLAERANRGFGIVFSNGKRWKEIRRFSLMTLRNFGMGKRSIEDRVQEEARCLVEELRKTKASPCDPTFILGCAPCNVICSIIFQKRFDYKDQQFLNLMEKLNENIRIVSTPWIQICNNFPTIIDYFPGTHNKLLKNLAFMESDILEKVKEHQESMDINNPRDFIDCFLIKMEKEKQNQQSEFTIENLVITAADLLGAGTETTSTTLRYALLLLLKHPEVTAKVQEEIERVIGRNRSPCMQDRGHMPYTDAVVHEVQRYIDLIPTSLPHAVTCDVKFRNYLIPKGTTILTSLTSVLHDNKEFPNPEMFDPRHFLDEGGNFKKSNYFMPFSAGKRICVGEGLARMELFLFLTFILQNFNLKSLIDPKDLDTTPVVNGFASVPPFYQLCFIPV

## Cc1ccc(NC(=O)Cn2nc(C)c3ccccc3c2=O)cc1F
Leucine aminopeptidase
  IC50: 14 µM (active)

## COc1cc(C(=O)NC2=NCCS2)ccc1OCc1c(C)noc1C
[1]
  IC50: > 66 µM (inactive)
[2]
  IC50: > 66 µM (inactive)

## O=C(CSC1=NCCS1)Nc1nc2ccccc2s1
[3]
  EC50: 15 µM (active)
[4]
  EC50: 12.5 µM (active)
H4
  EC50: 9.16 µM (active)
[1]
  IC50: > 66 µM (inactive)
[2]
  IC50: > 66 µM (inactive)

## COc1ccc(CNC(=O)CN(Cc2ccc(C)cc2)C(=O)c2csnn2)cc1
[1]
  IC50: > 66 µM (inactive)
[2]
  IC50: > 66 µM (inactive)

## NC(=NOC(=O)CSc1ccccc1)c1ccc([N+](=O)[O-])cc1
[3]
  EC50: 11.5 µM (active)
[4]
  EC50: 9.44 µM (active)
H4
  EC50: > 120 µM (not active)
[1]
  IC50: > 66 µM (inactive)
[2]
  IC50: > 66 µM (inactive)

## O=C(CSC1=Nc2ccccc2C2=NC(CC(=O)NCc3ccco3)C(=O)N12)NCc1ccco1 (stereo not drawn)
[1]
  IC50: > 66 µM (inactive)
[2]
  IC50: > 66 µM (inactive)

## O=C(O)C1CSC(c2ccncc2)N1 (stereo not drawn)
[1]
  IC50: > 66 µM (inactive)
[2]
  IC50: > 66 µM (inactive)

## O=C(CCl)N(CCc1ccccc1)CCc1ccccc1
[5]
  EC50: 2.07 µM (active)
[6]
  EC50: > 30 µM (not active)
[7]
  AC50: 10 µM (active)
Protein RecA
  EC50: 2.36 µM (active)
Vero
  CC50: 8.89 µM (active)

## Cc1cccn2c(=O)c3cc(C(=O)NCc4ccco4)c(=N)n(CCOCCO)c3nc12
[1]
  IC50: > 66 µM (inactive)
[2]
  IC50: 15.2 µM (active)

## Cc1ccc(C)c(NC(=O)CSc2ncnc3nc[nH]c23)c1
Leucine aminopeptidase
  IC50: 50.8 µM (active)

## COc1ccc(C2C(C#N)=C(N)OC3=C2C(=O)CC(C)(C)C3)c([N+](=O)[O-])c1OC (stereo not drawn)
[8]
  EC50: > 300 µM (not active)
[9]
  EC50: > 300 µM (not active)
Cytochrome P450 2C19
  AC50: 14.1 µM (inconclusive)
[1]
  IC50: > 66 µM (inactive)
[2]
  IC50: > 66 µM (inactive)

## O=C(NCc1ccco1)C(=O)c1cn(CC(=O)N2CCCC2)c2ccccc12
Leucine aminopeptidase
  IC50: 73.3 µM (active)

## COc1cc(NS(=O)(=O)c2ccc(NC(=O)CSC3=NCCS3)cc2)nc(OC)n1
Leucine aminopeptidase
  IC50: 2.12 µM (active)

## CC1(C)Cc2c(c(-c3ccco3)[nH]c(=O)c2C#N)CS1
[1]
  IC50: > 66 µM (inactive)
[2]
  IC50: 26 µM (inactive)

## Cc1ccccc1SCC(=O)NC1CCOC1=O (stereo not drawn)
[1]
  IC50: > 66 µM (inactive)
[2]
  IC50: > 66 µM (inactive)

## Cc1cccc(-c2nnc(NC(=O)c3ccc(Cl)cc3)o2)c1
[10]
  EC50: 0.099 µM (active)
[11]
  EC50: 23.1 µM (active)
[12]
  EC50: 17.4 µM (active)
Streptococcus
  EC50: 0.81 µM (active)
Vero
  CC50: > 25 µM (active)

## Cc1ccc2ncccc2c1NC(=S)NC(=O)c1ccccc1
[1]
  IC50: > 66 µM (inactive)
[2]
  IC50: > 66 µM (inactive)

## Cn1c(CCC(=O)O)nc2cc(S(=O)(=O)N3CCCCC3)ccc21
[1]
  IC50: > 66 µM (inactive)
[2]
  IC50: > 66 µM (inactive)

## O=C(O)c1cccc(Cn2c(Cl)c(/C=N/NC(=O)c3ccccc3)sc2=O)c1
Leucine aminopeptidase
  IC50: 20.8 µM (active)
